Experimental data taken from patent US20260207614A1, “IRAK4 DEGRADERS AND USES THEREOF” (Kymera Therapeutics, Inc., priority 2022, published 2026).
Read-outs that look alike come from different tables or passages of the source.

Legend:
[1] = clinical; settings: human, in vivo
Source text: The safety margin decreases as the dose increases.

[2] = Phase 1 MAD safety; assay type: in vivo, human; settings: multiple daily doses over 14 days up to 200 mg (MAD 4)
Source text: Steady-state plasma levels were reached by Day 7, with approximately 3-fold increase in exposure on Day 14 compared to Day 1.

[3] = system: ex vivo proinflammatory cytokine induction by R848 and LPS in whole blood; assay: Phase 1 MAD ex vivo cytokine induction by R848 and LPS in whole blood; design: species or system human; settings: daily up to about 200 mg, Day 7-14, FIG. 16
Source text: In some embodiments, the cytokines include IFN-γ, IL-12, IL-1β, IL-10, IL-6, TNF-α, IL-8, IL-17, and IL-23.

[4] = molecular target: T1, breast cancer resistance protein (BCRP) (Homo sapiens, UniProt Q9UNQ0); assay: BCRP substrate and efflux inhibition in vitro; assay type: in vitro ADME
T1 sequence (Q9UNQ0 1-655): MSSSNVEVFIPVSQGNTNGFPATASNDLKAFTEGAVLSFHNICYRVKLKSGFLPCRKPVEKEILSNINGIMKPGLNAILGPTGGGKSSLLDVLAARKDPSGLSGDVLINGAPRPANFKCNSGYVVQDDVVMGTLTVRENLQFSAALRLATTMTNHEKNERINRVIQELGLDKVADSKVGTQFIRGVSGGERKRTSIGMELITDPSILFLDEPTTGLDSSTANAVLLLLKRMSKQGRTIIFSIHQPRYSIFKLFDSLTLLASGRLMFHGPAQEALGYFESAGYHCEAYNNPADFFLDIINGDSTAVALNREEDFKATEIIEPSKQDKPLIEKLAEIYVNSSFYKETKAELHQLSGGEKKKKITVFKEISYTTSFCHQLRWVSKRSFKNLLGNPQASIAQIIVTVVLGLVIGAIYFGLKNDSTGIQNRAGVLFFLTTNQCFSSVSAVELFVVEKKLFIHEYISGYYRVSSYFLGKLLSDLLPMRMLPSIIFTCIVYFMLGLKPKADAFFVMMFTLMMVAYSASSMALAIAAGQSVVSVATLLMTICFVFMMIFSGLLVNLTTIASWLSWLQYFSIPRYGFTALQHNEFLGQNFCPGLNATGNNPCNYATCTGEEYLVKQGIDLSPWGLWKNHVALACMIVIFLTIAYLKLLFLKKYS
Source text: In in vivo pharmacokinetic (PK) studies conducted in rats, dogs, and monkeys.
(§1) Metabolites generated in liver microsomes from humans were also detected in those from rat, dog, and monkey. In the in vitro drug-drug interaction studies.

[5] = Solubility; assay type: physicochemical
Source text: Compound A can be classified tentatively as a BCS II compound.

[6] = Phase 1 MAD Compound A concentration in skin; assay type: in vivo; settings: human, oral, Day 14, once daily dosing, read-out: Ctrough (pre-dose) levels in skin relative to plasma
[7] = molecular target: CYP3A4 (Homo sapiens, UniProt P08684); assay: In vitro drug-drug interaction and metabolism studies, CYP3A4; assay type: in vitro ADME
Source text: as §1

Chain of CYP3A4 (P08684 whole entry): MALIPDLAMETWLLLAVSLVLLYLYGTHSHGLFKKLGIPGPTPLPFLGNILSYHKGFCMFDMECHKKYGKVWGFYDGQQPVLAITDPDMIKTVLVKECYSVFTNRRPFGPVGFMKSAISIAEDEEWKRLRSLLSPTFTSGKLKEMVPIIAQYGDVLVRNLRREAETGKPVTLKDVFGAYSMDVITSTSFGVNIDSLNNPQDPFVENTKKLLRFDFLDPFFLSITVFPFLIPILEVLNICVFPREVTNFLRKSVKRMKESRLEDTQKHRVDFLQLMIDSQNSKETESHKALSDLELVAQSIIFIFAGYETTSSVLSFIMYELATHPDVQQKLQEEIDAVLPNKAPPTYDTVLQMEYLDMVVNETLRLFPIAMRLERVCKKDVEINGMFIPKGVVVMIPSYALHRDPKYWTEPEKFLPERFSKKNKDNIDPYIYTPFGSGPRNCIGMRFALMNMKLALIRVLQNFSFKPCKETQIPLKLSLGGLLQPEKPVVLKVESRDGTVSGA

For `Cn1c(=O)n([C@@H]2CCC(=O)NC2=O)c2cccc(C#CCOC3CCN(C[C@H]4CC[C@H](n5cc(NC(=O)c6cnn7ccc(N8C[C@H]9C[C@@H]8CO9)nc67)c(C(F)F)n5)CC4)CC3)c21` [Compound A, 5-((1R,4R)-2-oxa-5-azabicyclo[2.2.1]heptan-5-yl)-N-(3-(difluoromethyl)-1-((1r,4R)-4-((4-((3-(1-(2,6-dioxopiperidin-3-yl)-3-methyl-2-oxo-2,3-dihydro-1H-benzo[d]imidazol-4-yl)prop-2-yn-1-yl)oxy)piperidin-1-yl)methyl)cyclohexyl)-1H-pyrazol-4-yl)pyrazolo[1,5-a]pyrimidine-3-carboxamide], the half-life [1] was 25 to 40 h, the “inter-subject variability in exposure” value [1] was “low to moderate” and the AUC ([1]; po, 25 mg) was 112 ng·h/mL. It also gave a Cmax ([1]; po, 25 mg) of 3.49 ng/mL, a Tmax ([1]; po, 25 mg) of 8 h and a half-life ([1]; po, 25 mg) of 25.2 h. The AUC ([1]; po, 75 mg) was 288 ng·h/mL, the Cmax ([1]; po, 75 mg) was 9.08 ng/mL and the Tmax ([1]; po, 75 mg) was 7 h. The half-life ([1]; po, 75 mg) was 28.7 h, the AUC ([1]; po, 150 mg) was 483 ng·h/mL and the Cmax ([1]; po, 150 mg) was 12.7 ng/mL. The Tmax ([1]; po, 150 mg) was 9 h, the half-life ([1]; po, 150 mg) was 31.6 h and the AUC ([1]; po, 300 mg) was 848 ng·h/mL. It also gave a Cmax ([1]; po, 300 mg) of 17.4 ng/mL, a Tmax ([1]; po, 300 mg) of 8 h and a half-life ([1]; po, 300 mg) of 26.6 h. The AUC ([1]; po, 600 mg) was 1520 ng·h/mL, the Cmax ([1]; po, 600 mg) was 24.2 ng/mL and the Tmax ([1]; po, 600 mg) was 12 h. It also gave a half-life ([1]; po, 600 mg) of 30.1 h, an AUC ([1]; po, 1000 mg) of 1950 ng·h/mL and a Cmax ([1]; po, 1000 mg) of 27.8 ng/mL. The Tmax ([1]; po, 1000 mg) was 20 h, the half-life ([1]; po, 1000 mg) was 40.2 h and the AUC ([1]; po, 1600 mg) was 1920 ng·h/mL. For the same compound, the Cmax ([1]; po, 1600 mg) was 27.3 ng/mL, the Tmax ([1]; po, 1600 mg) was 24 h and the half-life ([1]; po, 1600 mg) was 36.4 h. The safety and tolerability [2] was “safe and well-tolerated”, the “inhibition of IFN-γ” value [3] was “up to 85%” and the “inhibition of IL-1β” value [3] was “up to 68%”. The “inhibition of IL-6” value [3] was “up to 54%”, the “inhibition of IL-8” value [3] was “up to 46%” and the “inhibition of IL-10” value [3] was “up to 50%”. The “inhibition of IL-12” value [3] was “up to 72%”, the “inhibition of IL-17” value [3] was “up to 46%” and the “inhibition of TNF-α” value [3] was “up to 59%”. For the same compound, the “inhibition of BCRP efflux” value [4] was “inhibited BCRP efflux”, the “substrate of breast cancer resistance protein (BCRP)” value [4] was “substrate” and the solubility [5] was “low”. The solubility ([5]; FaSSIF, pH 6.5, fassif, read-out: solubility in bio-relevant fluid (FaSSIF)) was less than 12000 µg/mL, the solubility ([5]; aqueous media, aqueous buffer, across the physiological pH range, read-out: aqueous solubility) was no more than 3000 µg/mL and the BCS classification ([5]; tentative) was “BCS II”. The Kp at 14 day [6] was roughly 10, the metabolizing enzyme [7] was “primarily metabolized by CYP3A4” and the “time dependent inhibition (TDI) of CYP3A4” value ([7]; in vitro) was “potential time dependent inhibition (TDI)”.
